Test: Agilent ZORBAX 300 SB-C18, 150 × 1 mm, 3.5 µm; A: water + 0.01% heptafluorobutyric acid; B: acetonitrile + 0.01% heptafluorobutyric acid; gradient (min/%B) 0/0 100/90
Settings: stereoisomer not certain

| Compound | LC retention time [min] |
| --- | --- |
| CNC(C)C(O)c1ccccc1 (stereo not drawn) | 8.37 |
| COc1ccc(N2C(=O)CC(C3CCCO3)C2=O)cc1 (stereo not drawn) | 10.7 |
| O=C(O)Cc1c(C(=O)O)[nH]c2ccc(C(=O)O)cc12 | 7.21 |
| CCOC(=O)c1[nH]c(C)cc1C | 12.5 |
| CCCc1cc2c(cc1N)OCO2 | 9.27 |
| O=C1c2ccccc2C(=O)c2cc(C(=O)N3CCC(c4ccccc4)CC3)ccc21 | 17 |
| CC(=O)Nc1ccc(O)cc1 | 6.65 |
| C1=CCNC1 | 2.99 |
| c1cnccn1 | 5.91 |
| CCCCCNC=O | 8.68 |
| Cc1[nH]c2ccc(C(=O)O)cc2c1CC(=O)O | 8.13 |
| CCCN | 4.83 |
| Cc1ccc(C=NNC(=O)c2ccc(N)cc2)cc1 | 10.3 |
| NC1CC(CO)C(O)C1O (stereo not drawn) | 2.49 |
| O=C(O)CNC(=O)Nc1ccccc1 | 7.74 |
| CC(C)NCCCNC(C)C | 7.27 |
| O=C(NN=CC=NNC(=O)c1ccccn1)c1ccccn1 | 8.62 |
| Cc1cccc(CN2CCN(C(=O)CC(C)C)CC2)c1 | 9.36 |
| CCOC(=O)CN | 6.34 |
| Cc1ccc2c(c1N)C(=O)c1ccccc1C2=O | 14.9 |
| CC(C)(N)Cc1ccccc1 | 8.82 |

| Compound | LC retention time [min] |
| --- | --- |
| C[N+]12CCC(CC1)C1CC(O)CCC12 (stereo not drawn) | 6.39 |
| CN(C)C1CCNC1 (stereo not drawn) | 6.6 |
| Cc1[nH]c(C)c(C=O)c1C=O | 7.42 |
| CCCCN | 6.72 |
| Cc1ccc(N2CCN(C(=O)C(c3ccccc3)c3ccccc3)CC2)cc1C | 17.5 |
| CCN(CC)CC(=O)Nc1c(C)ccc(O)c1C | 8.16 |
| Cc1n[nH]c(=O)nc1NC1CCCCC1 | 8.28 |
| CCCCCCC=CC(C)=O | 16.2 |
| NC(CC(=O)O)c1ccccc1 (stereo not drawn) | 5.59 |
| O=C1NC(O)C(O)N1 (stereo not drawn) | 1.42 |
| Nc1cccc(N)c1 | 5.85 |
| CC(NC(=O)c1cccnc1)C(=O)N1CCCCC1 (stereo not drawn) | 8.28 |
| CC(=NNC(=O)CNC(=O)C(c1ccccc1)c1ccccc1)c1ccc(N(C)C)cc1 | 13.9 |
| Cc1cc(=O)[nH]c(N=C(N)N2CCOCC2)n1 | 6.89 |
| CC1(C)CC(N)CC(C)(CN)C1 (stereo not drawn) | 7.39 |
| CNC(C)C(=O)c1ccccc1 (stereo not drawn) | 8.4 |
| CNC(=S)Nc1c(C)cccc1C | 9.89 |
| Cn1c2c(c(=O)n(C)c1=O)C1c3ccccc3OCC1C(C)(C)O2 (stereo not drawn) | 13.2 |
| CCCC[N+](CCCC)(CCCC)CCCC | 13.2 |
| CC1CCCCN1C(=O)c1cncc(C(=O)N2CCCCC2C)c1 (stereo not drawn) | 11.3 |
| NC(=O)c1cn(CC(=O)O)c(=O)[nH]c1=O | 1.6 |

| Compound | LC retention time [min] |
| --- | --- |
| c1csc(CN2CCNCC2)c1 | 7.6 |
| COc1ccc(-c2cc(=O)c3ccc(OC)c(OC)c3o2)cc1OC | 12.7 |
| CN1C(=O)C(CCC(N)=O)NC1=S (stereo not drawn) | 6.53 |
| NC(=O)N1CCC(CCCC2CCN(C(N)=O)CC2)CC1 | 9.11 |
| CC(C)C[NH2+]C(CC(=O)O)c1ccccc1 (stereo not drawn) | 8.51 |
| CCCCN(C)CCCC | 8.6 |
| CN(C)CCN(C)C | 7.04 |
| Nc1nc(N)nc(-c2ccc(-c3nc(N)nc(N)n3)cc2)n1 | 7.16 |
| CN1C(=O)CC(N2CCN(C(=O)CN3CCCC3)CC2)C1=O (stereo not drawn) | 7.12 |
| O=C(C(Cc1ccccc1)n1cccc1)N1CCCC1 (stereo not drawn) | 13.8 |
| COc1ccccc1OCC(=O)N1CCNC1=O | 8.89 |
| Cc1cccc(C(=O)C=CN(C)C)c1 | 10.9 |
| Cc1ccc(-c2nn[nH]n2)n1C | 9.09 |
| Cc1ccc2cc(C(=O)O)c(=O)[nH]c2c1 | 9.64 |
| C#CC(C)(N)CC (stereo not drawn) | 6.91 |
| c1ccc(N(c2ccccc2)c2ccccc2)cc1 | 20.2 |
| Cc1cc(C)c2[nH]c3c(c2c1)CCCC3=O | 14.8 |
| Oc1ccc(-c2cccc(-c3ccc(O)cc3)n2)cc1 | 10.1 |
| CC(=O)NC1CCN(C)C2CCCCC12 (stereo not drawn) | 7.11 |
| CC1=NC(=O)NC(C2CC=CCC2)C1C(=O)OC(C)C (stereo not drawn) | 12.3 |
| Cn1c(=O)[nH]c(=O)n(C)c1=O | 5.9 |

| Compound | LC retention time [min] |
| --- | --- |
| c1ccc2nccnc2c1 | 8.94 |
| O=C1CCCC(O)=C1C1(O)C(=O)c2ccccc2C1=O | 8.21 |
| CC(C)(C)C1=CC(=O)CN(C(C)(C)C)C1 | 8.19 |
| Nc1nc2ccccc2[nH]1 | 7.69 |
| c1c[nH]cn1 | 2.95 |
| CN(C)c1c[nH]c(=O)[nH]c1=O | 6.22 |
| S=C(Nc1cccnc1)N(CCc1ccccc1)Cc1ccccc1 | 12.8 |
| Cc1nc(C)c(C)nc1C | 7.72 |
| COc1cc(C=CC(=O)c2ccc3c(c2)OCO3)cc(OC)c1OC | 14.7 |
| C=CCNC1CCCC1 | 7.45 |
| NCC1CCCCN1 (stereo not drawn) | 6.88 |
| Nc1cccc(C2OCCCO2)c1 | 7.87 |
| NC(=S)NN=C1CCCC1 | 8 |
| Cc1cccc(N)c1N | 7.32 |
| O=CN1CCNCC1 | 2.79 |
| N=C(N)c1ccc(N)cc1 | 6.62 |
| O=C(NNC(=O)C1CCCCC1C(=O)O)C(c1ccccc1)c1ccccc1 (stereo not drawn) | 11.8 |
| CN(C)c1nc(N(C)C)nc(N2CCCCC2)n1 | 11.2 |
| CCCCC(CC)CNCC(CC)CCCC (stereo not drawn) | 14.2 |
| CCc1ccncc1 | 6.94 |
| O=C1CCCN1CP(=O)(O)CCc1ccccc1 | 7.26 |

The next lines start with the values.

| LC retention time [min] | Compound |
| --- | --- |
| 13.4 | CC(C)(C)NC(=S)NCc1ccccc1 |
| 9.48 | Cc1cc[n+](CCc2ccccc2)cc1C |
| 13.6 | Cc1[nH]c2ccccc2c1CCNC(=O)C1CCCCC1 |
| 13.3 | Nc1ccccc1C(=O)NN=Cc1cccc2ccccc12 |
| 15.9 | CCn1c2ccccc2c2cc(C=Nn3c(C)cc(C)cc3=O)ccc21 |
| 9.03 | Cc1nc2ccccc2c(=O)o1 |
| 9.56 | CN1COc2ccc3ccccc3c2C1 |
| 8.73 | O=Cc1cccc2ncccc12 |
| 12.3 | O=C1NN=C(c2ccccc2)CC1c1c[nH]c2ccccc12 (stereo not drawn) |
| 9.62 | CCN(CC)CCNC(=O)c1ccccc1NC(=O)Nc1ccccc1 |
| 11.9 | Cc1nc2ccccc2nc1CN1C(=O)C2CC=CCC2C1=O (stereo not drawn) |
| 15.1 | Cc1ccc(C=C2C(=O)c3ccccc3C2=O)o1 |
| 10.4 | CCc1ccc(N2CC(C(=O)Nc3ccc(N(C)C)cc3)CC2=O)cc1 (stereo not drawn) |
| 11.7 | CNCCC=C1c2ccccc2CCc2ccccc21 |
| 8.16 | O=C(O)c1cc(-c2ccncc2)nc2ccccc12 |
| 8.14 | CCNC(=S)Nc1ccccc1N |
| 8.37 | CN(C)C(=O)Nc1ccccc1 |
| 9.29 | c1ccc(-c2cccc(-c3ccccn3)n2)nc1 |
| 15.8 | O=C(NCCCn1c2ccccc2c2ccccc21)Nc1ccccc1 |
| 13.4 | CCOC(=O)c1c(-c2ccccc2)c[nH]c1C |
| 11.1 | Nc1ccc(C(=O)Nc2cccc3ccccc23)cc1 |
| 10.6 | CC(=O)Nc1ccc(CC(C(=O)O)c2ccccc2)cc1 (stereo not drawn) |
| 13.2 | CC1=C(C(=O)c2ccccc2)CC(C(=O)c2ccccc2)=C(C)N1 |
| 8.66 | NC(=O)CNC(=O)c1ccc2ccccc2n1 |
| 16.9 | CCOC(=O)c1ccc(NC(=O)C(c2ccccc2)c2ccccc2)cc1 |

| LC retention time [min] | Compound |
| --- | --- |
| 11.1 | O=c1cnc(-c2ccccc2)c(-c2ccccc2)[nH]1 |
| 10.2 | CCn1c2ccccc2c2cc(CNC)ccc21 |
| 9 | CC(=O)c1ccc2c(c1)n(C)c(=O)n2C |
| 16 | S=C(NCc1ccc2[nH]c3c(c2c1)CCCC3)Nc1cccc2ccccc12 |
| 12.5 | CCN(CCCc1ccccc1)CCCc1ccccc1 |
| 9.54 | CCN(CC)c1cc(C)c2ccccc2n1 |
| 13.3 | CC(C)CNC(=O)c1cccc2c1-c1ccccc1C2=O |
| 11.9 | CC(C)CNc1c(N)c(=O)oc2ccccc12 |
| 14.3 | CCN(CC)c1ccc(C=NNC(=O)C(C)Nc2ccc3ccccc3c2)cc1 (stereo not drawn) |
| 11.9 | C=C(C)CC1C=CCC(CC(=C)C)N1Cc1ccccc1 (stereo not drawn) |
| 8.83 | CCN(CC)CCOc1ccccc1OC |
| 7.54 | C[N+](C)(N)Cc1ccccc1 |
| 13.3 | Cc1cccc(C(=O)NNC(=O)c2ccccc2C(=O)c2ccccc2)c1 |
| 11.3 | CCCCCn1c(CCC)nc2ccccc21 |
| 7.3 | O=C(O)Cn1cnc2ccccc2c1=O |
| 19 | CCn1ccc(C(C)C)c1-c1ccccc1 |
| 7.65 | Cn1c(=O)c2ccccc2n(CCN)c1=O |
| 12 | c1ccc(-c2cc(N3CCCCC3)c3ccccc3n2)cc1 |
| 14.1 | Cc1nc2ccccc2nc1COc1ccc2c(c1)OCO2 |
| 18 | COC(=O)c1ccc(C(=O)OC)c(NC(=O)CC(c2ccccc2)c2ccccc2)c1 |
| 8.61 | O=c1[nH]c(=O)n(CCc2ccccc2)c2c1CN(C1CCCC1)CN2 |
| 8.67 | Cc1ccc2ccc3ccc(C)nc3c2n1 |
| 14.4 | c1ccc2c(Sc3nccc4ccccc34)nccc2c1 |
| 14.7 | COc1cccc(OC)c1C(=O)C=Cc1ccccc1 |

Reference: the RepoRT retention time repository
